What follows are compounds tested against S. aureus (SAU) GyrB ATPase (Staphylococcus aureus, UniProt P0A0K8) (assay: S. aureus GyrB ATPase inhibition, ammonium molybdate/malachite green phosphate detection assay). Settings: compound concentration 5 μM (values marked *).
Type: biochemical
Procedure: Compounds were tested for inhibition of GyrB ATPase activity using an ammonium molybdate/malachite green-based phosphate detection assay (Lanzetta, P. A., L. J. Alvarez, P. S. Reinach, and O. A. Candia, 1979, 100: 95-97). Assays were performed in multiwell plates in 100 μl reactions containing: 50 mM Hepes buffer pH 7.5, 75 mM ammonium acetate, 8.0 mM magnesium chloride, 1.0 mM ethylenediaminetetraacetic acid, 5% glycerol, 2 mM 1,4-Dithio-DL-threitol, 400 nM bovine serum albumin, 5 μg/ml sheared salmon sperm DNA, 1.25 nM E. coli GyrA, 1.25 nM S. aureus GyrB, 500 μM ATP, and compound in dimethylsulfoxide. Reactions were quenched with 150 μl of ammonium molybdate/malachite green detection reagent containing 1.2 mM malachite green hydrochloride, 8.5 mM ammonium molybdate tetrahydrate, and 1 M hydrochloric acid. Plates were read in an absorbance plate reader at 650 nm and percent inhibition values were calculated using dimethylsulfoxide (2%)-containing reactions as 0% inhibition and novobiocin-containing (2 μM) reactions as 100% inhibition controls. Compound potency was based on IC50 measurements determined from reactions performed in the presence of 10 different compound concentrations.

S. aureus (SAU) GyrB ATPase, sequence (P0A0K8 whole entry): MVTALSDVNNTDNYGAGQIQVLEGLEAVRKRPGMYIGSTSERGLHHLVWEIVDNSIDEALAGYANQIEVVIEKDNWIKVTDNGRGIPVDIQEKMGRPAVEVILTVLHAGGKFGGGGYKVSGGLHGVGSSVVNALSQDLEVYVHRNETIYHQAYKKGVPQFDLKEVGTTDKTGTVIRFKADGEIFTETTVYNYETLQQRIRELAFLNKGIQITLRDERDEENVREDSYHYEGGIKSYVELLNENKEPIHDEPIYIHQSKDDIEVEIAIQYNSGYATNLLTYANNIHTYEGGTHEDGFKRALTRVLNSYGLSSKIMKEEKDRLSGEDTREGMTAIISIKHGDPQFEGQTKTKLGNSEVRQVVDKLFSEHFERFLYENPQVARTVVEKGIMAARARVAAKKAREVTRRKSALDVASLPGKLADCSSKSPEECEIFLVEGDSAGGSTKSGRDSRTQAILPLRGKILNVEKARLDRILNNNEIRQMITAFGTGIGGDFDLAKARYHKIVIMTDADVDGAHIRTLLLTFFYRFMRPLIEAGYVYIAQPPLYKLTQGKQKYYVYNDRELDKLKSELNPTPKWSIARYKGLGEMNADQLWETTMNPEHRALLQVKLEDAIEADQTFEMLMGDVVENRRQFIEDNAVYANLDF
S. aureus (SAU) GyrB ATPase, sequence (P0AES4 whole entry, further chain): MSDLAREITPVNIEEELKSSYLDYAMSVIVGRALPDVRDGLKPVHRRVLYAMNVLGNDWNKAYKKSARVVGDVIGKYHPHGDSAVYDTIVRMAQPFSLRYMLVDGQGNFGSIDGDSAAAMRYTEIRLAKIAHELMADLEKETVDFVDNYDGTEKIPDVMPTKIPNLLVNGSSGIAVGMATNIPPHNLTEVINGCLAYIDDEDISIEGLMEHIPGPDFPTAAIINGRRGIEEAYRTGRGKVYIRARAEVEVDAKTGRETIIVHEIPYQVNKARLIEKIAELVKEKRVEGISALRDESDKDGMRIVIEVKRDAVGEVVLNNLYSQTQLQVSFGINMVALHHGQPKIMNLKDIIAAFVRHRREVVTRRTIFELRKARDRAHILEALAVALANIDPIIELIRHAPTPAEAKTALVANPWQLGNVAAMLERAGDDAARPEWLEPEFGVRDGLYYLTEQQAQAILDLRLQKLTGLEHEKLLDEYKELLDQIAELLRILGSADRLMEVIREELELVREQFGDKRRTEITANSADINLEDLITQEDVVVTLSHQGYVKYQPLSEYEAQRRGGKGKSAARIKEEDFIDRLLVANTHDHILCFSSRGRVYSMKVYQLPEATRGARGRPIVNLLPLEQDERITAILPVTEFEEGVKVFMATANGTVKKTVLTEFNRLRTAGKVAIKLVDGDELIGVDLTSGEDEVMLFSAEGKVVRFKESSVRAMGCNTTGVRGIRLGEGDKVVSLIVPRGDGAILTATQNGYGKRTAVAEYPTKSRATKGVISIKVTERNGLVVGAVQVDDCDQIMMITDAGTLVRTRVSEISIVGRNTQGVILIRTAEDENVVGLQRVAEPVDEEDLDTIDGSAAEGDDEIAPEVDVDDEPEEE

SMILES	inhibition at 5 µM
CCNC(=O)Nc1ccc(-c2ncc(C(=O)NOC)s2)cn1 [Example 34, 2-(6-{[(Ethylamino)carbonyl]amino}pyridin-3-yl)-N-methoxy-1,3-thiazole-5-carboxamide]	42.5%
CCNC(=O)Nc1cccc(-c2ccc(C(=O)OCC)cc2)n1 [Example 16, Ethyl 4-(6-{[(ethylamino)carbonyl]amino}pyridin-2-yl)benzoate]	1.28%

Same assay, conditions: read-out: S. aureus (SAU) GyrB ATPase % Inhibition, compound concentration 12.5 μM

SMILES	inhibition at 12.5 µM
CCNC(=O)Nc1cc(-c2nc(C(C)(C)C)cs2)c(-c2cncc(C(=O)OCC)c2)cn1 [Example 141, ethyl 4′-(4-tert-butyl-1,3-thiazol-2-yl)-6′-{[(ethylamino)carbonyl]amino}-3,3′-bipyridine-5-carboxylate]	99.2%
CCNC(=O)Nc1ccc(-c2nc(C(=O)N[C@@H](C)COC)c(C(=O)O)s2)cn1 [Example 92, 2-(6-{[(ethylamino)carbonyl]amino}pyridin-3-yl)-4-({[(1S)-2-methoxy-1-methylethyl]amino}carbonyl)-1,3-thiazole-5-carboxylic acid]	101%
CCNC(=O)Nc1cc(-c2nc(CC)cs2)c(-c2cccc(C(=O)O)c2)cn1 [Example 100, 3-[6-{[(Ethylamino)carbonyl]amino}-4-(4-ethyl-1,3-thiazol-2-yl)pyridin-3-yl]benzoic acid]	99.7%
CCNC(=O)Nc1cccc(-c2ccc(C(=O)O)cc2)n1 [Example 32, 4-(6-{[(Ethylamino)carbonyl]amino}pyridin-2-yl)benzoic acid]	2.66%
CCNC(=O)Nc1cccc(-c2cccc(C(=O)O)c2)n1 [Example 31, 3-(6-{[(Ethylamino)carbonyl]amino}pyridin-2-yl)benzoic acid]	100%
CCNC(=O)Nc1ccc(-c2nc(C(=O)N(C)C)c(C(=O)NC(C)C)s2)cn1 [Example 56, 2-[6-(3-Ethyl-ureido)-pyridin-3-yl]-thiazole-4,5-dicarboxylic acid 4-dimethylamide 5-isopropylamide]	84.1%
CCNC(=O)Nc1cc(-c2cncc(F)c2)c(-c2cncc(C(=O)O)c2)cn1 [Example 69, 6′-{[(Ethylamino)carbonyl]amino}-5″-fluoro-3,3′:4′,3″-terpyridine-5-carboxylic acid]	88.5%
CCNC(=O)Nc1ccc(-c2ccc3c(c2)c(=O)c(C(=O)O)cn3CCN2CCOCC2)cn1 [Example 48, 6-(6-(3-ethylureido)pyridin-3-yl)-1-(2-morpholinoethyl)-4-oxo-1,4-dihydroquinoline-3-carboxylic acid]	101%
CCC(C)NC(=O)Nc1cc(-c2nc(C(F)(F)F)cs2)c(-c2cncc(C(=O)NC)c2)cn1 (stereo not drawn) [Example 130, 6′-{[(Sec-butylamino)carbonyl]amino}-N-methyl-4′-[4-(trifluoromethyl)-1,3-thiazol-2-yl]-3,3′-bipyridine-5-carboxamide]	98.7%
CCNC(=O)Nc1cc(-c2ccc(C(=O)O)cc2)ccn1 [Example 144, 4-(2-{[(ethylamino)carbonyl]amino}pyridin-4-yl)benzoic acid]	38.6%
CCNC(=O)Nc1cc(-c2nc(CC)cs2)c(-c2cccc(C(=O)N(C)C)c2)cn1 [Example 160, 3-[6-{[(ethylamino)carbonyl]amino}-4-(4-ethyl-1,3-thiazol-2-yl)pyridin-3-yl]-N,N-dimethylbenzamide]	95.5%
CCNC(=O)Nc1ncc(-c2cccc(C(=O)OC)c2)cn1 [Example 13, Methyl 3-(2-{[(ethylamino)carbonyl]amino}pyrimidin-5-yl)benzoate]	99%
CCCCNC(=O)c1nc(-c2ccc(NC(=O)NCC)nc2)sc1C(=O)NC [Example 108, N^4-Butyl-2-(6-{[(ethylamino)carbonyl]amino}pyridin-3-yl)-N^5-methyl-1,3-thiazole-4,5-dicarboxamide]	100%
CCNC(=O)Nc1cccc(-c2cccc(C(=O)OCC)c2)n1 [Example 15, Ethyl 3-(6-{[(ethylamino)carbonyl]amino}pyridin-2-yl)benzoate]	97.9%
CCNC(=O)Nc1ccc(-c2nc(-c3ncnn3C)c(C(=O)N(C)C)s2)cn1 [Example 113, 2-(6-{[(Ethylamino)carbonyl]amino}pyridin-3-yl)-N,N-dimethyl-4-(1-methyl-1H-1,2,4-triazol-5-yl)-1,3-thiazole-5-carboxamide]	102%
CCNC(=O)Nc1ccc(-c2nc(C(=O)NC3CC3)c(C(=O)OCC)s2)cn1 [Example 9, Ethyl 4-[(cyclopropylamino)carbonyl]-2-(6-{[(ethylamino)carbonyl]amino}pyridin-3-yl)-1,3-thiazole-5-carboxylate]	93.5%
CCNC(=O)Nc1cc(-c2cccnc2)c(-c2cncc(C(=O)OCC)c2)cn1 [Example 85, Ethyl 6′-{[(ethylamino)carbonyl]amino}-3,3′:4′,3″-terpyridine-5-carboxylate]	94.9%

SMILES	inhibition at 12.5 µM
CCNC(=O)Nc1ccc(-c2cccc(C(=O)O)c2)cn1 [Example 22, 3-(6-{[(Ethylamino)carbonyl]amino}pyridin-3-yl)benzoic acid]	99.7%
CCNC(=O)Nc1ccc(-c2nc(-c3nccn3CCOC)c(C(=O)OC)s2)cn1 [Example 71, Methyl 2-(6-{[(ethylamino)carbonyl]amino}pyridin-3-yl)-4-[1-(2-methoxyethyl)-1H-imidazol-2-yl]-1,3-thiazole-5-carboxylate]	93%
CCNC(=O)Nc1ccc(-c2nc(C(=O)NC)c(C(=O)O)s2)cn1 [Example 24, 2-(6-{[(Ethylamino)carbonyl]amino}pyridin-3-yl)-4-[(methylamino)carbonyl]-1,3-thiazole-5-carboxylic acid]	99.1%
CCCCNC(=O)c1nc(-c2ccc(NC(=O)NCC)nc2)sc1C(=O)N(C)C [Example 109, N^4-Butyl-2-(6-{[(ethylamino)carbonyl]amino}pyridin-3-yl)-N^5,N^5-dimethyl-1,3-thiazole-4,5-dicarboxamide]	99.5%
CCNC(=O)Nc1cc(-c2cccc(C(=O)OCC)c2)ccn1 [Example 137, ethyl 3-(2-{[(ethylamino)carbonyl]amino}pyridin-4-yl)benzoate]	86.9%
CCNC(=O)Nc1cc(-c2nc(CC)cs2)c(-c2cncc(C(=O)O)c2)cn1 [Example 99, 6′-{[(Ethylamino)carbonyl]amino}-4′-(4-ethyl-1,3-thiazol-2-yl)-3,3′-bipyridine-5-carboxylic acid]	102%
CCNC(=O)Nc1cc(-c2nc(C(C)(C)C)cs2)c(-c2cncc(C(=O)O)c2)cn1 [Example 145, 4′-(4-tert-butyl-1,3-thiazol-2-yl)-6′-{[(ethylamino)carbonyl]amino}-3,3′-bipyridine-5-carboxylic acid]	101%
CCNC(=O)Nc1ccc(-c2ccc3nc(C)c(C(=O)O)n3c2)cn1 [Example 148, 6-(6-{[(ethylamino)carbonyl]amino}pyridin-3-yl)-2-methylimidazo[1,2-a]pyridine-3-carboxylic acid]	94.2%
CCNC(=O)Nc1ccc(-c2nc(C(=O)O)cs2)cn1 [Example 18, 2-(6-{[(Ethylamino)carbonyl]amino}pyridin-3-yl)-1,3-thiazole-4-carboxylic acid]	101%
CCNC(=O)Nc1cc(-c2ccc(F)nc2)c(-c2cncc(C(=O)O)c2)cn1 [Example 104]	89.9%
CCNC(=O)Nc1ccc(-c2nc(C(=O)N[C@@H](C)COC)c(C(=O)OCC)s2)cn1 [Example 74, Ethyl 2-(6-{[(ethylamino)carbonyl]amino}pyridin-3-yl)-4-({[(1S)-2-methoxy-1-methylethyl]amino}carbonyl)-1,3-thiazole-5-carboxylate]	0.95%
CCNC(=O)Nc1ccc(-c2nc(C(=O)NC)c(C(=O)OC(C)C)s2)cn1 [Example 8, Isopropyl 2-(6-{[(ethylamino)carbonyl]amino}pyridin-3-yl)-4-[(methylamino)carbonyl]-1,3-thiazole-5-carboxylate]	81.5%
CCNC(=O)Nc1ccc(-c2nc3cccc(C(=O)O)c3s2)cn1 [Example 20, 2-(6-{[(Ethylamino)carbonyl]amino}pyridin-3-yl)-1,3-benzothiazole-7-carboxylic acid]	98.4%
CCCCn1cc(C(=O)O)c(=O)c2cc(-c3ccc(NC(=O)NCC)nc3)ccc21 [Example 47, 1-Butyl-6-(6-(3-ethylureido)pyridin-3-yl)-4-oxo-1,4-dihydroquinoline-3-carboxylic acid]	91.7%
CCNC(=O)Nc1ccc(-c2ccc3c(c2)c(=O)c(C(=O)O)cn3CC(F)F)cn1 [Example 49, 1-(2,2-difluoroethyl)-6-(6-(3-ethylureido)pyridin-3-yl)-4-oxo-1,4-dihydroquinoline-3-carboxylic acid]	37.8%
CCNC(=O)Nc1ccc(-c2c[nH]c(=O)c(C(=O)O)c2)cn1 [Example 51, 5-(6-(3-ELthylureido)pyridin-3-yl)-2-oxo-1,2-dihydropyridine-3-carboxylic acid]	62.1%
CCNC(=O)Nc1ccc(-c2nc(-c3nccn3C)c(C(=O)OC)s2)cn1 [Example 75, Methyl 2-(6-{[(ethylamino)carbonyl]amino}pyridin-3-yl)-4-(1-methyl-1H-imidazol-2-yl)-1,3-thiazole-5-carboxylate]	93.5%

From patent US7674801B2 (AstraZeneca AB, priority 2006, dated 2010)
